Results on eleven molecules are retold here after paper PMC11653428, “5‐methyl‐2‐carboxamidepyrrole‐based novel dual mPGES‐1/sEH inhibitors as promising anticancer candidates” (Archiv Der Pharmazie, 2024).

For one experiment, the target named is T1, human recombinant sEH (Homo sapiens, UniProt P34913).
T1 construct: purchased 10011671
T1 sequence (P34913 1-555): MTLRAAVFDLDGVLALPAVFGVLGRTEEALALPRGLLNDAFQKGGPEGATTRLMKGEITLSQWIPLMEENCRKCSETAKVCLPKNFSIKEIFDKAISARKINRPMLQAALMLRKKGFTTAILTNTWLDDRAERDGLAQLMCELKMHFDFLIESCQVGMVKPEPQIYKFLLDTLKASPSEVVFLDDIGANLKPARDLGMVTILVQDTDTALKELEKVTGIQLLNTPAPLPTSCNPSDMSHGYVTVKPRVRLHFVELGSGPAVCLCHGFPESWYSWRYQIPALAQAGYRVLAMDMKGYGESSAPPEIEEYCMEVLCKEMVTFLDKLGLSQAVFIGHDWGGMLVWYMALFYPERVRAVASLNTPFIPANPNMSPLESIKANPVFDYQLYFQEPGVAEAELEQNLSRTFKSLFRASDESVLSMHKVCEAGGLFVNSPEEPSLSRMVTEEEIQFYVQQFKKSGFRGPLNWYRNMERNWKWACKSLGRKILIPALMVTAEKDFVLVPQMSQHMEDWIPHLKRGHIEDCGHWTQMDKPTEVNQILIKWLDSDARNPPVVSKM
Briefly: Cell-free sEH activity assay (PHOME fluorescence, inhibitor screening kit). The format is biochemical. The settings on record: for remaining activity at 10 µM: compound at 10 μM, percentage of vehicle control (DMSO) = 100%, n = 3, read-out: Residual activity of sEH, mean ± SD (%); for IC50: threefold dilutions from 30,000 to 1.52 nM, read-out: IC50 (µM), mean ± SD for sEH. The text has this: When the epoxide moiety of PHOME is hydrolyzed by the epoxide hydrolase, an intramolecular cyclization occurs, which results in the release of a cyanohydrin under basic conditions. The cyanohydrin quickly decomposes into cyanide ion and the highly fluorescent 6‐Methoxy‐2‐naphthaldehyde, which can be analyzed. The signal was detected (λex 330 nm, λem 465 nm) on an EnSpire™ Multimode Plate Reader (PerkinElmer).
The reaction was initiated by adding a small amount of a no-fluorescent substrate called PHOME. When sEH hydrolyzes PHOME, it triggers a chemical reaction that ultimately produces a fluorescent compound. The fluorescence emitted by this compound was measured using a plate reader, which allowed the researchers to analyze the enzyme activity and determine the effectiveness of the test compounds in inhibiting sEH.

In a further experiment the test system is HCT-116 cells. Briefly: Cell survival index (MTT assay and cell count) in HCT-116 CRC cells. The format is cell-based, human. The settings on record: 48 h of incubation, cell survival index, n = 24, read-out: IC50 ± SD (µM) HCT-116. On the procedure:
HCT‐116 cells (CCL‐247 ™), an epithelial‐like carcinoma cell line isolated from the colon of an adult with colon cancer, were purchased from ATCC and cultured in Roswell Park Memorial Institute (Invitrogen) supplemented with 10% fetal bovine serum (FBS, Cambrex), L‐glutamine (2 mM, Sigma), penicillin (100 units/mL, Sigma), and streptomycin (100 μg/mL, Sigma), and cultured in a humidified 5% carbon dioxide atmosphere at 37°C, according to ATCC recommendations.^[ [58] ^]
(§1) Bioactivity and cell responses to in vitro treatment with 1f, 2b, 2c, and 2d compounds were investigated through the estimation of a “cell survival index,” arising from the combination of cell viability evaluation with cell counting. The cell survival index is calculated as the arithmetic mean between the percentage values derived from the 3‐(4,5‐dimethyl‐2‐thiazolyl) 2,5‐diphenyl‐2‐H‐tetrazolium bromide (MTT) assay and the automated cell count.^[ [67] ^] HCT‐116 and HaCaT were inoculated in 96‐microwell culture plates at a density of 10^4 cells/well and allowed to grow for 24 h. Subsequently, the culture medium was exchanged with fresh medium, and cells were exposed to different concentrations (0→50 µM) of compounds 1f, 2b−2d under investigation for an additional 48 h. After the treatments, the medium was removed, and the cells were incubated with 20 μL/well of an MTT solution (5 mg/mL MTT, Sigma) for 1 h in a humidified 5% CO2 incubator at 37°C. The incubation was stopped by removing the MTT solution and by adding 100 μL/well of DMSO to solubilize the obtained formazan. Finally, the absorbance was monitored at 550 nm using a microplate reader (iMark microplate reader, Bio‐Rad). Cell number was determined by TC20 automated cell counter (Bio‐Rad), which uses disposable slides, TC20 trypan blue dye (0.4% trypan blue dye w/v in 0.81% sodium chloride and 0.06% potassium phosphate dibasic solution), and a CCD camera to count cells based on the analyses of captured images. The medium was removed, and the cells were collected. Ten microliters of cell suspension, mixed with 0.4% trypan blue solution at a 1:1 ratio, were loaded into the chambers of disposable slides. The results are expressed in terms of total cell count (cell number/mL). […] Total counts and live/dead ratio from random samples for each cell line were subjected to comparisons with manual hemocytometers in control experiments. […] Concentration‐effect curves were obtained with nonlinear regression using GraphPad Prism 8.0 curve‐fitting software.^[ [67] ^]
(§2) Experiments on HTC-116 and HaCat cell lines: The bioactivity and cellular responses to treatment 2d were evaluated by calculating a "cell survival index." This index combines results from cell viability tests (using the MTT assay) and cell counting. HCT-116 and HaCaT cells were grown in 96-well plates for 24 hours, after which they were treated with various concentrations of the compounds for an additional 48 hours. After treatment, cell viability was assessed by incubating the cells with MTT solution, which results in the formation of formazan crystals. These crystals were dissolved in DMSO, and the absorbance was measured to determine cell viability.
For orientation: Tetrazolium dyes change colour on reduction, which living cells bring about.

For another experiment, the system named is HaCaT cells. Briefly: Cell survival index (MTT assay and cell count) in HaCaT keratinocytes. The format is cell-based, human. Conditions: 48 h of incubation, cell survival index, n = 24, healthy control cells, read-out: IC50 ± SD (µM) HaCat. On the procedure:
HaCaT cells, human immortalized keratinocytes (kindly provided by Dr. Valeria Cicatiello at Italian National Research Council (CNR), Institute of Genetics and Biophysics), were maintained in a humidified 5% CO2 atmosphere at 37°C and grown in DMEM (Invitrogen) supplemented with 10% fetal bovine serum (FBS, Cambrex), L‐glutamine (2 mM), penicillin (100 units/mL, Sigma‐Aldrich), and streptomycin (100 μg/mL). Cells were seeded at a density between 2 and 4 × 10^4 cells/cm^2 and cultured to about 80%–90% confluence.^[ [66] ^] HaCaT cells provide ideal in vitro cell systems to study biocompatibility and toxicological cellular responses.
as §1, §2

A further experiment deals with T2, mPGES-1 (Homo sapiens, UniProt O14684).
T2 construct: endogenous in cells; host or cells: A549 cells stimulated with IL-1β; microsomal fraction
T2 sequence (O14684 1-152): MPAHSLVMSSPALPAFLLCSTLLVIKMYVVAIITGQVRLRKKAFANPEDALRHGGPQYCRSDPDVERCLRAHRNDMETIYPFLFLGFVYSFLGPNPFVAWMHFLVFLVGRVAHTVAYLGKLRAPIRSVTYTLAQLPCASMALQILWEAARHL
Briefly: Cell-free mPGES-1 activity assay (microsomes of IL-1β-stimulated A549 cells, PGE2 formation by RP-HPLC). In kind it is biochemical. The settings on record: for Residual activity of mPGES-1, mean ± SD (%) / remaining activity at 10 µM: compound at 10 μM, percentage of vehicle control (DMSO) = 100%, n = 3; for Residual activity of mPGES-1, mean ± SD (%): 10 µM; for remaining activity at 10 µM: read-out: Residual activity of mPGES-1, mean ± SD (%); for IC50: cell-free, A549 microsomes, read-out: IC50 (µM), mean ± SD for mPGES-1. As to the method: Compounds 1a–f and 2a–d were submitted to a cell‐free assay mPGES‐1^[ [52] ^] to validate the inhibitory activity predicted in silico.
Microsomes of A549 cells containing mPGES‐1 were used as enzyme sources. In brief, A549 cells were stimulated with interleukin‐1β (IL‐1β) (2 ng/mL) for 48 h, harvested, and sonicated. The lysate was first centrifugated at 10,000g (10 min), and then at 174,000g for (1 h) at 4°C. The pellet (microsomal fraction) was resuspended in 1 ml homogenization buffer (0.1 M potassium phosphate buffer, pH = 7.4, 1 mM phenylmethanesulfonyl fluoride, 60 µg/mL soybean trypsin inhibitor, 1 µg/mL leupeptin, 2.5 mM GSH, and 250 mM sucrose), the total protein concentration was determined, and microsomes were diluted in potassium phosphate buffer (0.1 M, pH 7.4) containing GSH (2.5 mM) and seeded in a 96‐well plate. […] After 1 min, the addition of 100 µL of a stop solution (40 mM FeCl3, 80 mM citric acid, and 10 µM 11β‐PGE2) blocked the reaction. PGE2 and 11β‐PGE2 were extracted by solid‐phase extraction, and PGE2 formation was quantified by RP‐HPLC.^[ [52] ^]
mPGES-1 activity assay: Microsomes from A549 cells, which contain the enzyme mPGES-1, were used in an experiment to study the production of PGE2. The A549 cells were first stimulated with IL-1β for 48 hours, then harvested and broken down by sonication. The resulting cell lysate was subjected to two rounds of centrifugation to isolate the microsomal fraction. The microsomes were diluted and placed in a 96-well plate, where they were preincubated with various compounds or a control solution. The production of PGE2 was triggered by adding a substrate, and the reaction was stopped after one minute. PGE2 was then extracted and quantified using HPLC.

The next experiment has as its system mPGES-1 from A549 cells. Set-up: method as in earlier work. Conditions: cited from earlier work.
The subject of experiment [1] is human recombinant mPGES-1. Set-up: method as in earlier work. Conditions: cited from earlier work.

Structures are written as SMILES. Like-named read-outs stand apart in the source and are kept apart here.

For the molecule `Cc1[nH]c(C(=O)Nc2ccc(C(C)O)cc2)cc1C(=O)c1ccccc1` (racemic) [Compound 1d, (±) 4‐Benzoyl‐N‐[4‐(1‐hydroxyethyl)phenyl]‐5‐methyl‐1H‐pyrrole‐2‐carboxamide], on human recombinant sEH, the remaining activity at 10 µM was 93.4 ± 0.6%.
Take `N.N.[Cl][Pt][Cl]` [Cisplatin, reference compound]: the IC50 was 9 ± 3 µM in the experiment on HCT-116 cells and 20 ± 3 µM in the experiment with HaCaT cells.
For the molecule `Cc1[nH]c(C(=O)Nc2ccc3ccccc3n2)cc1C(=O)c1ccccc1` [Compound 1b, 4‐benzoyl‐5‐methyl‐N‐(quinolin‐2‐yl)‐1H‐pyrrole‐2‐carboxamide], the “Residual activity of mPGES-1, mean ± SD (%)” value on mPGES-1 is on record as 55.6 ± 2.9%. In addition, the values for the remaining activity at 10 µM on mPGES-1 and at human recombinant sEH were approximately 55% and 71.8 ± 4.7%, respectively.
`Cc1ccc(NC(=O)c2cc(C(=O)c3ccccc3)c(C)[nH]2)cc1C` [Compound 1c, 4‐Benzoyl‐N‐(3,4‐dimethylphenyl)‐5‐methyl‐1H‐pyrrole‐2‐carboxamide]: the remaining activity at 10 µM came out at 65.5 ± 3.7% on mPGES-1 and 47.7 ± 2.9% on human recombinant sEH.
On to `Cc1[nH]c(C(=O)Nc2cc(Cl)cc(Cl)c2)cc1C(=O)c1ccccc1` [Compound 1e, 4‐benzoyl‐N‐(3,5‐dichlorophenyl)‐5‐methyl‐1H‐pyrrole‐2‐carboxamide], for which the remaining activity at 10 µM came out at 73.4 ± 5.2% on mPGES-1 and 86.9 ± 4.8% at human recombinant sEH.
On to `Cc1[nH]c(C(=O)Nc2cc(N)cc(C(F)(F)F)c2)cc1C(=O)c1ccccc1` [Compound 1f, N‐[3‐Amino‐5‐(trifluoromethyl)phenyl]‐4‐benzoyl‐5‐methyl‐1H‐pyrrole‐2‐carboxamide], for which the “Residual activity of mPGES-1, mean ± SD (%)” value on mPGES-1 is reported as 47.6 ±4.4%. In addition, the remaining activity at 10 µM on mPGES-1 is approximately 50%; at human recombinant sEH, 36.1 ± 5.1%. In addition, the IC50 on human recombinant sEH was found to be 5 ± 0.9 µM; in the experiment with HCT-116 cells (Homo sapiens, HCT-116), 25 ± 2 µM; in the experiment with HaCaT cells (Homo sapiens, HaCaT), 37 ± 3 µM.
Take `CCc1ccccc1NC(=O)c1cc(C(=O)c2ccc3ccccc3c2)c(C)[nH]1` [Compound 2a, 4‐(2‐Naphthoyl)‐N‐(2‐ethylphenyl)‐5‐methyl‐1H‐pyrrole‐2‐carboxamide]: the results for the remaining activity at 10 µM at mPGES-1 and at human recombinant sEH were 83.4 ± 4% and 74.3 ± 3.6%, respectively.
In the case of `Cc1ccc(NC(=O)c2cc(C(=O)c3ccc4ccccc4c3)c(C)[nH]2)cc1O` [Compound 2b, 4‐(2‐Naphthoyl)‐N‐(3‐hydroxy‐4‐methylphenyl)‐5‐methyl‐1H‐pyrrole‐2‐carboxamide], the IC50 at mPGES-1 stood at 3.3 ± 0.5 µM; on human recombinant sEH it was 1.5 ± 0.2 µM; in the experiment on HCT-116 cells (Homo sapiens, HCT-116), 42 ± 1 µM; in the experiment with HaCaT cells (Homo sapiens, HaCaT), 31 ± 4 µM. For the same molecule, the remaining activity at 10 µM at mPGES-1 came to 17.6 ± 0.3%; at human recombinant sEH, 21.7 ± 4.2%.
With `COc1ccc(NC(=O)c2cc(C(=O)c3ccc4ccccc4c3)c(C)[nH]2)cc1O` [Compound 2c, 4‐(2‐Naphthoyl)‐N‐(3‐hydroxy‐4‐methoxyphenyl)‐5‐methyl‐1H‐pyrrole‐2‐carboxamide], the IC50 at mPGES-1 is 4 ± 1.1 µM; on human recombinant sEH it was 6.3 ± 1.1 µM; in the experiment with HCT-116 cells (Homo sapiens, HCT-116), 44 ± 3 µM; in the experiment with HaCaT cells (Homo sapiens, HaCaT) it was 43 ± 2 µM. The remaining activity at 10 µM on mPGES-1 was 30.4 ± 1.9%; at human recombinant sEH, 47.2 ± 2.5%.
Take `Cc1[nH]c(C(=O)Nc2ccc(Cl)c(CO)c2)cc1C(=O)c1ccc2ccccc2c1` [Compound 2d, 4‐(2‐Naphthoyl)‐N‐[4‐chloro‐3‐(hydroxymethyl)phenyl]‐5‐methyl‐1H‐pyrrole‐2‐carboxamide]: the IC50 was 4.5 ± 1.3 µM on mPGES-1; 7.6 ± 1 µM on human recombinant sEH; 39 ± 2 µM with HCT-116 cells (Homo sapiens, HCT-116); 22 ± 2 µM with HaCaT cells (Homo sapiens, HaCaT). The remaining activity at 10 µM at mPGES-1 amounted to 21.5 ± 2.9%; at human recombinant sEH, 41.6 ± 3.1%.
`CCCCCCCCCCCC(=O)c1c(C)c(CCC(=O)O)n(C)c1C` [I, 3-(4-dodecanoyl-1,3,5-trimethyl-1H-pyrrol-2-yl)propanoic acid]: in the experiment with mPGES-1 from A549 cells, the “Inhibition of mPGES-1 from A549 cells at 3.3 μM [%]” value is listed as 74±8 (n=5) %. Further, in experiment [1], the “Inhibition of human recombinant mPGES-1 at 1μM [%]” value is listed as 54±8 (n=7) %.

By IC50 is commonly meant the point on the concentration scale where inhibition reaches its midpoint.
